Measurements reported in patent publication US10898570B2, “Combination therapy with an anti-HER2 antibody-drug conjugate and a Bcl-2 inhibitor” (Genentech, Inc., priority 2015, dated 2021).

Assays:
[1] = tested on: Clone #17 T-DM1 resistant KPL-4 human breast cancer xenografts; test: xenograft study, tumor volume; assay type: in vivo, SCID beige mice
Excerpt: For all xenograft studies, three million T-DM1-resistant KPL-4 breast cancer cells were implanted in #2/3 mammary fat pads of female SCID-beige mice. […] The results of these xenograft studies for xenografts of various clones of the T-DM1-resistant KPL-4 breast cancer cells are shown in FIGS. 5B and 6C.

[2] = cited from earlier work
[3] = weekly dosing with 2.4 mg/kg; cited from earlier work
[4] = tested on: Clone #17 T-DM1 resistant KPL-4 human breast cancer cell line; test: caspase 3/7 activation luminescence assay (Caspase-Glo); assay type: cell-based; conditions: 48 hours; 1 ug/mL T-DM1 alone or with indicated doses of GDC-0199
Experimental: (§1) In the present experiment, caspase 3/7 activation luminescence assay was performed using the Caspase-Glo® reagent (Promega) essentially following manufacturer's instructions. […]

Bcl-2 = conditions: T-DM1 1.25 μg/mL; cell lines BT-474, MDA_361 and ZR-75-30
Experimental: Western blot analysis was performed as follows: Cells were lysed in corrected FLAG elution buffer (CFEB) (19.17 mM Tris (pH 7.5), 916.7 μM MgCl2, 92.5 mM NaCl and 0.1% Triton X-100) with protease and phosphatase inhibitors (Roche); in some cases 6 M urea was added. Cleared lysates were quantitated and equal amounts of proteins were reduced, alkylated, separated by SDS-PAGE, and transferred onto PVDF membranes (Invitrogen) following standard procedures. Western blotting was performed as recommended by the respective antibody manufacturers.
The effect of treatment with T-DM1 (1.25 μg/mL) alone or in combination with GDC-0199 (1.25 μM) was studied on various T-DM1 naïve HER2+ breast cancer cell lines.

[5] = tested on: T-DM1-resistant KPL-4 (HER2+) breast cancer cells; test: caspase 3/7 activation luminescence assay (Caspase-Glo); assay type: cell-based, human; conditions: 48 hours; T-DM1 0.1 or 1 μg/mL; GDC-0199 1, 2.5 or 5 μM
Experimental: as §1

KPL-4 parental cells = test: as above; assay type: cell-based, human
Experimental: as §1

[6] = tested on: HER2+ HCC1569 breast cancer cells (T-DM1 naive); test: caspase 3/7 activation luminescent in vitro apoptosis assay; assay type: cell-based; conditions: 24 hours; five concentrations of GDC-0199, 9 concentrations of T-DM1
Experimental: (§2) In the present experiment, caspase 3/7 activation luminescence assay was performed using the Caspase-Glo® reagent (Promega) essentially following manufacturer's instructions. Assays were performed in the same manner as the viability assays except that drug incubation times were 24 hours and Caspase-Glo 3/7 (Promega) was used to measure apoptosis.
(§3) Caspase 3/7 activation luminescence assay was performed as described in Example 3.

[7] = tested on: HER2+ MDA-MB-361 breast cancer cells (T-DM1 naive); test: as above; assay type: cell-based; conditions: 24 hours; five concentrations of GDC-0199, 9 concentrations of T-DM1
Experimental: as §2, §3

CC1(C)CCC(CN2CCN(c3ccc(C(=O)NS(=O)(=O)c4ccc(NCC5CCOCC5)c([N+](=O)[O-])c4)c(Oc4cnc5[nH]ccc5c4)c3)CC2)=C(c2ccc(Cl)cc2)C1 [GDC-0199, 2-(1H-pyrrolo[2,3-b]pyridin-5-yloxy)-4-(4-((2-(4-chlorophenyl)-4,4-dimethylcyclohex-1-enyl)methyl)piperazin-1-yl)-N-(3-nitro-4-((tetrahydro-2H-pyran-4-yl)methylamino)phenylsulfonyl)benzamide]
tumor growth (tumor volume) ([1]; 100 mg/kg): no activity

COc1cc2cc(c1Cl)N(C)C(=O)C[C@H](OC(=O)[C@H](C)N(C)C(C)=O)[C@]1(C)O[C@H]1[C@H](C)[C@@H]1C[C@@](O)(NC(=O)O1)[C@H](OC)/C=C/C=C(\C)C2 [maytansine]
dose-limiting toxicity (DLT) ([2]; 2.0 mg/m2 every 3 weeks, single dose or 3 consecutive days): gastrointestinal | activity in the clinic ([2]; at doses that could be safely delivered): modest

trastuzumab-MCC-DM1 [T-DM1]
anti-tumor activity [3]: anti-tumor activity | activation of caspases 3 and 7 (apoptosis) [4]: minimal effect | phosphorylation of Bcl-2 after treatment (Western blot) (Bcl-2): phosphorylation of Bcl-2 | tumor growth (tumor volume) ([1]; T-DM1 5 mg/kg administered once, GDC-0199 100 mg/kg qd×21): no activity | activation of caspases 3 and 7 (apoptosis) [5]: minimal effect | activation of caspases 3 and 7 (apoptosis) (KPL-4 parental cells; 24 hours of drug treatment): no effect | activation of caspases 3 and 7 (apoptosis) (KPL-4 parental cells; 48 hours, T-DM1 0.1 or 1 μg/mL, GDC-0199 1, 2.5 or 5 μM): robust activation | caspase 3/7 activity (apoptosis) [6]: does not induce apoptosis | caspase 3/7 activity (apoptosis) [7]: caspases 3 and 7 activation
